# Measurements reported in patent US20100168231A1, “TARGET ENZYME FOR THE TREATMENT OF ACNE” (GALDERMA RESEARCH & DEVELOPMENT, priority 2007, published 2010).
# Read-outs that look alike come from different tables or passages of the source.
# Assays:
# [1] = target: T1, human DHRS9 (Homo sapiens, UniProt Q9BPW9); experiment: Cellular model of oxidation of 3α-diol by DHRS9: inhibition of 3α-diol conversion to DHT, followed via AR transactivation (luciferase reporter) in DHRS9-transfected PALM cells; format: cell-based; conditions: read-out: inhibition of 3α-diol conversion
# T1 construct: expressed in transfected cells; host or cells: PALM cells (PC-3 stably co-transfected with human androgen receptor and pMMTV-neo-Luc)
# T1 sequence (Q9BPW9 18-319): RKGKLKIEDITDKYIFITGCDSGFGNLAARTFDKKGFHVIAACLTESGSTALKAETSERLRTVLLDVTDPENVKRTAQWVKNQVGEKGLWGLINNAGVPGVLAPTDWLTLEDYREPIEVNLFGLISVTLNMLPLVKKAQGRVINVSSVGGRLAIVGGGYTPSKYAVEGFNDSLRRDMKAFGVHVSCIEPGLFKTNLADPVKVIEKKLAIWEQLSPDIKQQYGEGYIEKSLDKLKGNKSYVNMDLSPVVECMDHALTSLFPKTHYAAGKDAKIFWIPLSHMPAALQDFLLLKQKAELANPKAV
# From the text: (§1) The cDNA coding for human DHRS9 was sub-cloned into a pcDNA3.1/zeo expression vector. This was then transfected into a cell line denoted PALM, standing for PC-3 Androgen receptor Luciferase MMTV. This cell line originates from PC-3 cells which have been stably co-transfected by the expression vector coding for the human androgen receptor (pSG5-puro-h androgen receptor (AR)) and by the reporter gene vector coding for luciferase (pMMTV-neo-Luc), the promoter for which has AR response elements.
# (§2) The activity of conversion of 3α-diol to DHT by DHRS9 can thus be followed via AR transactivation.
# [2] = test system: human androgen receptor (AR); experiment: Dose-response of the 3α-diol substrate for AR transactivation in PALM cells (PC-3 Androgen receptor Luciferase MMTV); format: cell-based
# From the text: as §1, §2
smiles,measurement,setting,value
"CC1(C)[C@@H](OC(=O)CCC(=O)O)CC[C@]2(C)[C@H]3C(=O)C=C4[C@@H]5C[C@@](C)(C(=O)O)CC[C@]5(C)CC[C@@]4(C)[C@]3(C)CC[C@@H]12 [carbenoxolone, Carbenoxolone]",inhibition at 100 µM,"[1]; concentration of 100 μM, PALM cells transfected with DHRS9",35%
"C[C@]12CC[C@@H](O)C[C@@H]1CC[C@@H]1[C@@H]2CC[C@]2(C)[C@@H](O)CC[C@@H]12 [3α-diol, 3α-androstanediol]",AC50,[2]; cells transfected with DHRS9,0.019 µM
same,AC50,[2]; non-transfected cells,0.189 µM
"CC(C)=CCCC(C)=CC=O (racemic) [citral, Citral]",inhibition at 100 µM,[1],86%
